Several values for one entry are separate records, joined by “and”; a condition that tells them apart may be missing. Equal values may be shown once. Read-outs that look alike come from different tables or passages of the source.
Experiments:
[1] = Pharmacokinetics of 5-MeO-DMT and bufotenine after single inhaled dose; assay type: in vivo, human; conditions: for Cmax: human, plasma, inhaled or intranasal, inhalation, n=8, read-out: Median Cmax
Procedure: Blood samples were obtained at 1; 2; 4; 7; 10; 15; 20; 30; 45 min and 1; 1.5; 2; 3; 4 hours after administration.
PK parameters were generated by algebraic analysis of the concentration versus time plots for each individual. The analysis was carried out using the software Phoenix WinNonlin 6.3.

[2] = test system: patients with postpartum depression (PPD); experiment: Clinical trial of inhaled 5-MeO-DMT in postpartum depression; assay type: in vivo, human; conditions: for BIMF domain Adjustment score / BIMF domain Infant Care score: max 12; for BIMF domain Infant Care score: Day 0 12; for BIMF domain Management score: max 36; for BIMF domain Psychological Well-being score: max 60; for BIMF TOTAL score: possible total 120; for Time to clinical remission after administration: IDR 6 mg then 12 mg
Source text: The patient completed all planned visit days.

[3] = LC-MS/MS of 5-MeO-DMT, bufotenine and 5-MIAA in urine, serum and breastmilk of lactating PPD patient; infant exposure estimates; conditions: for Breastmilk concentration / Serum concentration / Urine concentration: second patient
Source text: When determining the potential impact of maternal drug administration on a breastfed infant, it is standard practice to calculate the Relative Infant Dose (RID) (Bennett, P. N., and L. J. Notarianni. “Risk from drugs in breast milk: an analysis by relative dose.” Br J Clin Pharmacol 42.5 (1996): P673-4). The RID is the dosage (in μg/kg/day) the infant is exposed to by the intake of breast milk, divided by the dosage (in μg/kg/day) the mother receives.
Using estimates for daily intake of breast milk and the number of feeds as well as the measured breast milk concentrations the exposure of the infant can be determined.
For example, a published estimate for daily intake of breast milk as a function of infant weight is 150 ml/kg/day. To model the exposure, it is assumed that an infant of 5 kg is fed three times over 24 hours, receiving 250 ml breast milk each time.
The second patient was lactating, and, per the clinical trial protocol, breastmilk samples were collected pre-dosing and at multiple timepoints after administration of the last dose. […] Similar analyses were carried out on patient serum and urine samples.

[4] = second patient, Day 7 (visit on day 5)
[5] = female, human, breast milk, inhaled

COc1ccc2[nH]cc(CCN(C)C)c2c1 [5-MeO-DMT]
Detectability in plasma ([1]; 3 hours after inhalation, 6, 12, 18 mg): no longer detectable
Cmax ([1]; 6 mg group): 11.8 ng/mL
Cmax ([1]; 12 mg group): 22.9 ng/mL
Cmax ([1]; 18 mg group): 38.5 ng/mL
Accumulation upon repeated administration ([1]; repeated administration within 1 to 4 hours): No accumulation
BIMF TOTAL Δ (Day 7) ([2]; first patient): 13
BIMF domain Adjustment Δ (Day 7) ([2]; first patient): 1
BIMF domain Infant Care Δ (Day 7) ([2]; first patient): 0
BIMF domain Management Δ (Day 7) ([2]; first patient): 5
BIMF domain Mother-Child Interaction Δ (Day 7) ([2]; first patient): 2
BIMF domain Psychological Well-being Δ (Day 7) ([2]; first patient): 9
BIMF domain Self-Care Δ (Day 7) ([2]; first patient): 4
BIMF domain Social Support Δ (Day 7) ([2]; first patient): 1
PES score ([2]; first patient, 12 mg): 85.7
Total MADRS improvement ([2]; first patient, 2 hr): 24
Total MADRS score ([2]; first patient, 2 hr, baseline 29): 5
BPRS item score ([2]; first patient, Day 1): 1
MADRS item score ([2]; first patient, Day 1): 0
Total MADRS improvement ([2]; first patient, Day 1): 29
Total MADRS score ([2]; first patient, Day 1, baseline 29): 0
BIMF domain Adjustment % improvement ([2]; first patient, Day 7): 20.00%
BIMF domain Infant Care % improvement ([2]; first patient, Day 7): 0.00%
BIMF domain Management % improvement ([2]; first patient, Day 7): 18% and 17.86%
BIMF domain Mother-Child Interaction % improvement ([2]; first patient, Day 7): 13.33%
BIMF domain Psychological Well-being % improvement ([2]; first patient, Day 7): 20.45%
BIMF domain Self-Care % improvement ([2]; first patient, Day 7): 44% and 44.44%
BIMF domain Social Support % improvement ([2]; first patient, Day 7): 5.88%
BIMF total score improvement ([2]; first patient, Day 7): 14%
BPRS item score ([2]; first patient, Day 7): 1
Total MADRS improvement ([2]; first patient, Day 7): 28
BIMF domain Adjustment score ([2]; first patient, Day 7, Day 0 5): 6
BIMF domain Self-Care score ([2]; first patient, Day 7, Day 0 9, max 18): 13
BIMF domain Infant Care score ([2]; first patient, Day 7): 12
BIMF domain Mother-Child Interaction score ([2]; first patient, Day 7, Day 0 15, max 18): 17
BIMF domain Social Support score ([2]; first patient, Day 7, Day 0 17, max 18): 18
BIMF domain Management score ([2]; first patient, Day 7, Day 0 28): 33
BIMF domain Psychological Well-being score ([2]; first patient, Day 7, Day 0 44): 53
BIMF TOTAL score ([2]; first patient, Day 7, Day 0 92): 105
Total MADRS score ([2]; first patient, Day 7, baseline 29): 1
BPRS item score ([2]; first patient, Discharge): 1
Time to clinical remission after administration ([2]; first patient): ≤ 2 h
Reported adverse events ([2]; first patient, cramping left abdominal pain and headache, Day 0): mild, short-lasting and resolved spontaneously
PES score ([2]; first patient, nominal dose 6 mg): 17.3
BIMF TOTAL Δ (Day 7) ([2]; second patient): 45
BIMF domain Adjustment Δ (Day 7) ([2]; second patient): 9
BIMF domain Infant Care Δ (Day 7) ([2]; second patient): 0
BIMF domain Management Δ (Day 7) ([2]; second patient): 13
BIMF domain Mother-Child Interaction Δ (Day 7) ([2]; second patient): 7
BIMF domain Psychological Well-being Δ (Day 7) ([2]; second patient): 27
BIMF domain Self Care Δ (Day 7) ([2]; second patient): 10
BIMF domain Social Support Δ (Day 7) ([2]; second patient): 3
PES score ([2]; second patient, 12 mg): 94.7
Total MADRS score ([2]; second patient, 2 hr, baseline 41): 5
Total MADRS improvement ([2]; second patient, 2 hrs): 36
BPRS item score ([2]; second patient, Day 1): 1
MADRS item score ([2]; second patient, Day 1): 0
Total MADRS improvement ([2]; second patient, Day 1): 41
Total MADRS score ([2]; second patient, Day 1, baseline 41): 0
BIMF domain Adjustment % improvement ([2]; second patient, Day 7): 450%
BIMF domain Infant Care % improvement ([2]; second patient, Day 7): 0%
BIMF domain Management % improvement ([2]; second patient, Day 7): 76%
BIMF domain Mother-Child Interaction % improvement ([2]; second patient, Day 7): 70%
BIMF domain Psychological Well-being % improvement ([2]; second patient, Day 7): 113%
BIMF domain Self Care % improvement ([2]; second patient, Day 7): 333%
BIMF item score ([2]; second patient, Day 7): 6 and 5 and 4
BIMF total score improvement ([2]; second patient, Day 7): over 40%
BPRS item score [2, 4]: 1
MADRS item score [2, 4]: 0
Total MADRS improvement [2, 4]: 41
Total MADRS score ([2]; second patient, Day 7 (visit on day 5), baseline 41): 0
BIMF domain Adjustment score ([2]; second patient, Day 7, Day 0 2): 11
BIMF domain Self Care score ([2]; second patient, Day 7, Day 0 3, max 18): 13
BIMF domain Mother-Child Interaction score ([2]; second patient, Day 7, Day 0 10, max 18): 17
BIMF domain Social Support score ([2]; second patient, Day 7, Day 0 11, max 18): 14
BIMF domain Infant Care score ([2]; second patient, Day 7): 12
BIMF domain Management score ([2]; second patient, Day 7, Day 0 17): 30
BIMF domain Psychological Well-being score ([2]; second patient, Day 7, Day 0 24): 51
BIMF TOTAL score ([2]; second patient, Day 7, Day 0 59 (table)): 104
BPRS item score ([2]; second patient, Discharge): 1
Time to clinical remission after administration ([2]; second patient): ≤ 2 h
PES score ([2]; second patient, nominal dose 6 mg): 1
Reported adverse events ([2]; second patient, vomiting Day 0, headache Day 5): mild, short-lasting and resolved spontaneously
Daily Infant Dosage (DID) per kg ([3]; 5 kg infant, three feeds of 250 ml): 0.0001385 mg/kg/day
concentration at 1 h [3, 5]: 2.17 ng/mL
concentration at 2.5 h [3, 5]: 0.561 ng/mL
concentration at 8.5 h [3, 5]: 0.0421 ng/mL
concentration at 1 h ([3]; female, human, serum, inhaled): 0.133 ng/mL
Breastmilk concentration ([3]; 1.0 hrs after last dose): 2167 pg/mL
Serum concentration ([3]; 2.5 hrs after last dose): BLQ (Below limit of quantification. The lower limit of quantification is 25 pg/ml for both 5-MeO-DMT and 5-MIAA in both serum and breastmilk; it is 25 pg/ml in urine for 5-MeO-DMT and 250 pg/ml for 5-MIAA in urine.)
Urine concentration ([3]; 8.5 hrs after last dose): BLQ (Below limit of quantification. The lower limit of quantification is 25 pg/ml for both 5-MeO-DMT and 5-MIAA in both serum and breastmilk; it is 25 pg/ml in urine for 5-MeO-DMT and 250 pg/ml for 5-MIAA in urine.)
Breastmilk concentration ([3]; 24.0 hrs after last dose): did not detect and BLG
Serum concentration ([3]; 24.0 hrs after last dose): BLQ (Below limit of quantification. The lower limit of quantification is 25 pg/ml for both 5-MeO-DMT and 5-MIAA in both serum and breastmilk; it is 25 pg/ml in urine for 5-MeO-DMT and 250 pg/ml for 5-MIAA in urine.)
Urine concentration ([3]; 24.0 hrs after last dose): BLQ (Below limit of quantification. The lower limit of quantification is 25 pg/ml for both 5-MeO-DMT and 5-MIAA in both serum and breastmilk; it is 25 pg/ml in urine for 5-MeO-DMT and 250 pg/ml for 5-MIAA in urine.)
Breastmilk concentration ([3]; 120.0 hrs after last dose): BLQ (Below limit of quantification. The lower limit of quantification is 25 pg/ml for both 5-MeO-DMT and 5-MIAA in both serum and breastmilk; it is 25 pg/ml in urine for 5-MeO-DMT and 250 pg/ml for 5-MIAA in urine.)
Serum concentration ([3]; 120.0 hrs after last dose): BLQ (Below limit of quantification. The lower limit of quantification is 25 pg/ml for both 5-MeO-DMT and 5-MIAA in both serum and breastmilk; it is 25 pg/ml in urine for 5-MeO-DMT and 250 pg/ml for 5-MIAA in urine.)
Urine concentration ([3]; 120.0 hrs after last dose): BLQ (Below limit of quantification. The lower limit of quantification is 25 pg/ml for both 5-MeO-DMT and 5-MIAA in both serum and breastmilk; it is 25 pg/ml in urine for 5-MeO-DMT and 250 pg/ml for 5-MIAA in urine.)
Breastmilk concentration ([3]; −24.0 hrs (pre-dosing)): BLQ (Below limit of quantification. The lower limit of quantification is 25 pg/ml for both 5-MeO-DMT and 5-MIAA in both serum and breastmilk; it is 25 pg/ml in urine for 5-MeO-DMT and 250 pg/ml for 5-MIAA in urine.)
Serum concentration ([3]; −24.0 hrs (pre-dosing)): BLQ (Below limit of quantification. The lower limit of quantification is 25 pg/ml for both 5-MeO-DMT and 5-MIAA in both serum and breastmilk; it is 25 pg/ml in urine for 5-MeO-DMT and 250 pg/ml for 5-MIAA in urine.)
Urine concentration ([3]; −24.0 hrs (pre-dosing)): BLQ (Below limit of quantification. The lower limit of quantification is 25 pg/ml for both 5-MeO-DMT and 5-MIAA in both serum and breastmilk; it is 25 pg/ml in urine for 5-MeO-DMT and 250 pg/ml for 5-MIAA in urine.)
